Source: paper PMC10714399, “Open Source Antibiotics: Simple Diarylimidazoles Are Potent against Methicillin-Resistant Staphylococcus aureus” (ACS Infectious Diseases, 2023)
In brackets after ≈: the same amount, converted by molar mass. Read-outs that look alike come from different tables or passages of the source.

Columns and labels:
[1] = test system: Staphylococcus aureus NCTC 13373 (mecA-positive; methicillin-resistant); test: In vitro antibacterial activity, MIC (UCL School of Pharmacy assay), MRSA; assay type: cell-based; conditions: for MIC: Staphylococcus aureus
Procedure: (§1) Staphylococcus aureus NCTC 13373 (mecA-positive; methicillin-resistant, NCTC 13373) was supplied by the National Collection of Type Cultures (NCTC), Public Health England, United Kingdom. Other organisms, S. aureus ATCC 25923 (methicillin-susceptible) and Enterococcus faecalis ATCC 51299 (vanA-positive; vancomycin-resistant), were obtained from the American Type Culture Collection (ATCC) via LGC Standards, UK. A suspension of each organism was prepared from an overnight plate culture (tryptone soya agar) in phosphate-buffered saline (PBS) and adjusted to an absorbance reading at 600 nm of 0.1, which is approximately equivalent to 1 × 10^8 colony-forming units (CFU) per mL. The cultures were further diluted 1:100 in isosensitest broth (Oxoid, United Kingdom) before 100 μL was used to inoculate each well of a 96-well plate that contained diluted samples of the OSA series. Compounds were evaluated over a 2-fold dilution range from 32 to 0.03 μg/mL. Stocks of the samples were prepared in 100% DMSO at […] before being diluted in isosenstitest broth. The highest concentration of DMSO present was 2%, which has been previously shown not to inhibit the growth of the microorganisms (data not shown). […] Vancomycin was used as a quality control compound.

[2] = test system: Enterococcus faecalis ATCC 51299 (vanA-positive; vancomycin-resistant); test: In vitro antibacterial activity, MIC (UCL), VRE; assay type: cell-based
Procedure: as §1

[3] = test system: S. aureus ATCC 25923 (methicillin-susceptible); test: In vitro antibacterial activity, MIC (UCL), MSSA; assay type: cell-based, Staphylococcus aureus; conditions: for MIC: Staphylococcus aureus
Procedure: as §1

| MIC ([1]; UCL, read-out: MRSA MIC (UCL)) | MIC ([2]; read-out: VRE MIC (UCL)) | MRSA MIC [1] | VRE MIC [2] | Structure (SMILES) | also measured |
| --- | --- | --- | --- | --- | --- |
| – | – | > 32 µg/mL | > 32 µg/mL | COc1ccc(-c2nc3ccc(C)cn3c2NCc2ccco2)cc1OC.Cl [compound 849] | – |
| – | – | > 32 µg/mL | > 32 µg/mL | COc1ccn2c(Nc3cccc(F)c3)c(-c3cscn3)nc2c1.O=CO [compound 843] | – |
| > 32 µg/mL | > 32 µg/mL | – | – | COc1ccn2c(Nc3ccnc(C)c3)c(-c3ccccn3)nc2c1 [OSA_000854] | – |
| – | – | 8 µg/mL | 16 µg/mL | Cc1ccc2nc(-c3ccccn3)c(Nc3ccc4c(c3)OCCO4)n2c1 [compound 841] | – |
| > 32 µg/mL | > 32 µg/mL | – | – | COc1ccn2c(NCc3cn(C)cn3)c(-c3ccccn3)nc2c1 [OSA_000853] | – |
| – | – | > 32 µg/mL | > 32 µg/mL | Cc1ccn2c(Nc3ccc(F)cc3)c(-c3ccc(N(C)C)cc3)nc2c1 [compound 846] | – |
| – | – | > 32 µg/mL | > 32 µg/mL | COc1ccn2c(Nc3cccc(F)c3)c(-c3cn(C)cn3)nc2c1 [compound 848] | – |
| 8 µg/mL (≈ 25.4 µM) | 32 µg/mL (≈ 102 µM) | – | – | Cc1ccc2nc(-c3ccccn3)c(NCc3ccccc3)n2c1 [OSA_000842] | MIC ([3]; read-out: MSSA MIC (UCL)): 4 µg/mL (≈ 12.7 µM) |
| 8 µg/mL (≈ 23.9 µM) | 16 µg/mL (≈ 47.9 µM) | – | – | COc1ccn2c(Nc3ccccc3F)c(-c3ccccn3)nc2c1 [OSA_000851] | MIC ([3]; read-out: MSSA MIC (UCL)): 4 µg/mL (≈ 12 µM) |
| > 32 µg/mL | > 32 µg/mL | – | – | CN(C)Cc1ccc2nc(-c3ccccn3)c(Nc3cccc(F)c3)n2c1 [OSA_000844] | – |
| > 32 µg/mL | > 32 µg/mL | – | – | Cn1ccnc1-c1nc2ccccn2c1Nc1ccc(F)cc1 [OSA_000847] | – |
| > 32 µg/mL | > 32 µg/mL | – | – | Cc1ccn2c(Nc3ccc(F)cc3)c(-c3ccc(N(C)C)cc3)nc2c1 [OSA_000846] | – |
| – | – | > 32 µg/mL | > 32 µg/mL | CN(C)Cc1ccc2nc(-c3ccccn3)c(Nc3cccc(F)c3)n2c1 [compound 844] | – |
| 8 µg/mL (≈ 22.3 µM) | 16 µg/mL (≈ 44.6 µM) | – | – | Cc1ccc2nc(-c3ccccn3)c(Nc3ccc4c(c3)OCCO4)n2c1 [OSA_000841] | – |
| > 32 µg/mL | > 32 µg/mL | – | – | COc1ccn2c(Nc3ccc4c(c3)OCCO4)c(-c3c[nH]cn3)nc2c1 [OSA_000866] | – |
| – | – | > 32 µg/mL | > 32 µg/mL | COCc1ccc2nc(-c3ccccn3)c(Nc3cccc(F)c3)n2c1 [compound 852] | – |
| > 32 µg/mL | > 32 µg/mL | – | – | COc1ccn2c(Nc3cccc(F)c3)c(-c3cn(C)cn3)nc2c1 [OSA_000848] | – |

Further lines, the compound ahead of its results:

| Structure (SMILES) | MIC ([1]; UCL, read-out: MRSA MIC (UCL)) | MIC ([2]; read-out: VRE MIC (UCL)) | MRSA MIC [1] | VRE MIC [2] | also measured |
| --- | --- | --- | --- | --- | --- |
| Clc1ccc(-c2c(-c3ccccn3)nc3n2CCC3)cc1Cl [compound 876] | – | – | – | – | MIC ([1]; read-out: MRSA MIC): 8 µg/mL (≈ 24.2 µM); MIC ([2]; read-out: VRE MIC): 8 µg/mL (≈ 24.2 µM) |
| Cc1ccn2c(NC3CCCC3)c(-c3ccc(N(C)C)cc3)nc2c1 [OSA_000840] | > 32 µg/mL | > 32 µg/mL | – | – | – |
| c1ccc(-c2nc3ccccn3c2N2CCOCC2)nc1 [OSA_000850] | > 32 µg/mL | > 32 µg/mL | – | – | – |
| Cc1ccccc1-c1c(-c2ccccn2)nc2n1CCC2 [OSA_000977] | 32 µg/mL (≈ 116 µM) | 32 µg/mL (≈ 116 µM) | – | – | – |
| c1ccn2c(NC3CCCC3)c(-c3nccs3)nc2c1 [OSA_000845] | > 32 µg/mL | > 32 µg/mL | – | – | – |
| c1cnc(-c2nc3n(c2-c2ccc4occc4c2)CCC3)cn1 [OSA_000873] | > 32 µg/mL | > 32 µg/mL | – | – | MIC ([3]; read-out: MSSA MIC (UCL)): > 32 µg/mL |
| Cc1ccc2nc(-c3ccccn3)c(NCc3ccccc3)n2c1 [compound 842] | – | – | 8 µg/mL | 32 µg/mL | MSSA MIC [3]: 4 µg/mL |
| FC(F)(F)Oc1ccc(-c2c(-c3ccccn3)nc3n2CCC3)cc1 [compound 868] | – | – | – | – | MIC ([1]; read-out: MRSA MIC): 8 µg/mL (≈ 23.2 µM); MIC ([2]; read-out: VRE MIC): 32 µg/mL (≈ 92.7 µM) |
| c1ccc(-c2nc3ccccn3c2N2CCOCC2)nc1 [compound 850] | – | – | > 32 µg/mL | > 32 µg/mL | – |
| c1ccn2c(NC3CCCC3)c(-c3nccs3)nc2c1 [compound 845] | – | – | > 32 µg/mL | > 32 µg/mL | – |
| c1cnc(-c2nc3n(c2-c2ccc4occc4c2)CCC3)cn1 [compound 873] | – | – | – | – | activity against MRSA, in words [1]: inactive; MIC ([1]; read-out: MRSA MIC): > 32 µg/mL; MIC ([3]; read-out: MSSA MIC): > 32 µg/mL; MIC ([2]; read-out: VRE MIC): > 32 µg/mL |
| c1ccc(-c2nc3ncccn3c2-c2ccc3occc3c2)nc1 [OSA_000863] | > 32 µg/mL | > 32 µg/mL | – | – | – |
| c1ncc(-c2nc3n(c2-c2ccc4occc4c2)CCC3)cn1 [compound 874] | – | – | – | – | activity against MRSA, in words [1]: inactive; MIC ([1]; read-out: MRSA MIC): > 32 µg/mL; MIC ([2]; read-out: VRE MIC): > 32 µg/mL |
| c1ncc(-c2nc3n(c2-c2ccc4occc4c2)CCC3)cn1 [OSA_000874] | > 32 µg/mL | > 32 µg/mL | – | – | – |
